Reference: patent US20040029908A1, “Tricyclo compounds, a process for their production and a pharmaceutical composition containing the same” (FUJISAWA PHARMACEUTICAL CO., LTD., priority 1984, published 2004)

Experiments:
[1] = Solubility (physical and chemical properties); type: physicochemical
[2] = system: Interleukin-2 (IL-2) Production; assay: Inhibition of Interleukin-2 (IL-2) Production in MLR, CTLL-2 bioassay; type: cell-based, mouse; settings: for IL-2: MLR supernatant at 48 hours
Procedure: The mixed lymphocyte reaction (MILR) was performed in microtiter plates, with each well containing 5 ×10^5 C57BL/6 responder cells (H-2^b), 5 ×10^5 mitomycin C treated (25 μg/ml mitomycin C at 37° C. for 30 minutes and washed three times pith RPMI 1640 medium) BALB/C stimulator cells ([…]) in 0.2 ml RPMI 1640 medium supplemented with 10% fetal calf serum, 2mM sodium hydrogen carbonate, penicillin 20 (50 unites/ml) and streptomycin (50 μg/ml) . The cells were incubated at 37° C. in humidified atmosphere of 5% carbon dioxide and 95% of air for 48 hours and the supernatant was collected. The FR-900506 substance was dissolved in ethanol and further diluted in RPMI 1640 medium and added to the cultures to give final concentrations of 0.1 μg/ml or less.
The IL-2 activity was measured according to the method described by S. Gillis et. al. [Journal of Inununology, Vol. 120, page 2027, (1978)]. The IL-2 dependent CTLL-2 cell line was used to quantitate IL-2 activity. Cells (5 ×10^3/well) were cultured at 37° C. for 24 hours with various dilutions of IL-2 containing supernatant from MLR. The uptake of ^3H-thymidine was measured by pulsing cultures with 0.5 uCi of 1T-thymidine for 6 hours. The unit value was calculated by dilution analysis of test sample and was compared with a laboratory standard preparation in which 100 units are equivalent to the amount of IL-2 necessary to achieve 50% proliferation of CTLL-2 cells.

[3] = system: Skin Allograft Survival in Rats (Fischer donor, WKA recipient); assay: Skin Allograft Survival in Rats; type: in vivo, rat; settings: daily treatment, intramuscularly, 14 consecutive days
Procedure: Vental allografts from donor (Fischer) rats were grafted onto the lateral thoracic area of recipient (WKA) rats. The dressings were removed on day 5. The grafts were inspected daily until rejection which was defined as more than 90% necrosis of the graft epitherium.
The FR-900506 substance was dissolved in olive oil and administered intramuscularly for 14 consecutive days, beginning at the day of transplantation.

[4] = system: Experimental Allergic Encephalomyelytis in SJL/J Mice; assay: Experimental Allergic Encephalomyelitis (EAE) in SJL/J Mice; type: in vivo, mouse
[5] = system: Plaque Forming Cell (PFC) Response in C3H/He mice; assay: in vivo Plaque Forming Cell (PFC) Response in Mice; parameters: species or system mouse
Procedure: Male C3H/He mice 6 to 7 weeks of age were used for this 1 test. The mice were immunized on day 0 with 0.2 ml of 1 ×10^8 washed sheep erythrocytes intravenously. Spleens were removed on day 4 and spleen cells were incubated in the presence of SRBC as described by Cunningham and Szenberg (1968). Tests were evaluated by enumeration of direct generated plaque forming cells in the presence of complement. Suspensions of spleen cells were counted with a Microcellcounter CC-130 (Sysmex, Japan) and PFC results were calculated as PFC/10^6 recovered cells. The FR-900506 substance was administered orally for 4 days starting from the immunization.

C=CCC1/C=C(\C)CC(C)CC(OC)C2OC(O)(C(=O)C(=O)N3CCCCC3C(=O)OC(/C(C)=C/C3CCC(O)C(OC)C3)C(C)C(O)CC1=O)C(C)CC2OC (centres unmarked) [FR-900506, 17-Allyl-1,14-dihydroxy-12-[2-(4-hydroxy-3-methoxycyclohexyl)-1-methyvinyl]-23-25-dimethoxy-13,19,21,27-tetramethyl-11,28-dioxa-4-azatricyclo[22.3.1.0^4,9]octacos-18-ene-2,3,10,16-tetraone]
Solubility ([1]; hexane (n-hexane), petroleum ether): Sparingly Soluble
Solubility ([1]; methanol, ethanol, acetone, ethyl acetate, chloroform, diethyl ether and benzene): Soluble
Solubility ([1]; water): Insoluble
Production of IL-2 from mouse MLR (in words) [2]: inhibited the production of Il-2 from mouse MLR
IL-2 ([2]; 0.1 nM): 25.0 units/ml
IL-2 ([2]; 0.3 nM): 0.2 units/ml
IL-2 ([2]; 1 nM): 0 units/ml
IL-2 ([2]; 10 nM): 0 units/ml
inhibition at 0.0001 µM ([2]; Mus musculus, CTLL-2, 0.1 nM): 34.4%
inhibition at 0.0003 µM ([2]; Mus musculus, CTLL-2, 0.3 nM): 99.5%
inhibition at 0.001 µM ([2]; Mus musculus, CTLL-2, 1 nM): 100%
inhibition at 0.01 µM ([2]; Mus musculus, CTLL-2, 10 nM): 100%
Effect on skin allograft survival (in words) [3]: clearly prolonged skin allograft survival
Number of Animals with Disease at Day 24 ([4]; 32 mg/kg orally for 19 days starting on day 0): 0/5
Development of clinical signs of EAE (in words) ([4]; orally for 19 days starting on day 0): clearly prevented the development of clinical signs of EAE
PFC/10^6 cells ([5]; 3.2 mg/kg orally for 4 days): 3618 ± 476 PFC/10^6 cells
PFC/10^6 cells ([5]; 10 mg/kg orally for 4 days): 1382 ± 243 PFC/10^6 cells
PFC/10^6 cells ([5]; 32 mg/kg orally for 4 days): 657 ± 41 PFC/10^6 cells
PFC/10^6 cells ([5]; 100 mg/kg orally for 4 days): 278 ± 41 PFC/10^6 cells
ED50 ([5]; Mus musculus, po, 96 h, orally for 4 days starting from the immunization): 5.9 mg/kg
